Results on 3 compounds are retold here after patent US6248744A, “Method for the treatment of pain, including chronic and female specific pain” (priority 2000, dated 2001).

Each structure is given as a SMILES string.

In data set [1] the test system is rats and mice. The conditions noted are these: cited from earlier work.
For data set [2], the system named is ganglionic nicotinic receptors. The conditions noted are these: agonist of ganglionic nicotinic receptors; cited from earlier work.
Data set [3] relates to animal studies. The conditions noted are these: cited from earlier work.
For data set [4], the system named is central nicotinic receptor subtypes. The conditions noted are these: cited from earlier work.
In data set [5] the test system is neuropathic rat hindlimb. As to the kind of experiment: Neuropathic pain model (injury of spinal nerves L5 and L6), allodynia measured with von Frey filaments, intrathecal injection. In kind it is in vivo. The conditions noted are these: one week after nerve injury. An excerpt:
Analgesic potency of compounds of the present invention can also be tested in animal models of neuropathic or neurogenic pain. One such model resembles the human condition termed causalgia or reflex sympathetic dystrophy (RSD) secondary to injury of a peripheral nerve. This condition is characterized by hyperesthesia (enhanced sensitivity to a natural stimulus), hyperalgesia (abnormal sensitivity to pain), allodynia (hypersensitivity and pain to normally non-painful stimuli, either thermal or tactile), and spontaneous burning pain. In humans, neuropathic pain tends to be chronic and may be debilitating.
Briefly, in the model used, rats are subjected to a surgical procedure, described by Kim et al. (Kim, S. H. and Chung, J. M. (1992) Pain 50:355-363), designed to reproducibly injure peripheral nerves (spinal nerves L5 and L6). These rats develop a hyperesthetic state, which can be measured, using one or more paradigms known in the art. Here, allodynia was measured by stimulation of neuropathic rat hindlimb using nylon filaments having graded degrees of stiffness.
Sex differences in response to (E)-N-methyl-4-(3-pyridinyl)-3-butene-1-amine were tested using the assay described above. Hypersensitivity to light touch (withdrawal threshold to application of calibrated von Frey filaments) was documented one week later. […]

For data set [6], the system named is male and female Sprague Dawley rats. As to the kind of experiment: Latency to hindpaw withdrawal from a focused light heat source after intrathecal injection. In kind it is in vivo, rat. The conditions noted are these: for maximum possible analgesic effect: radiant heat paw withdrawal. As for the experimental part: Trans-metanicotine was administered via intrathecal catheters inserted in male and female Sprague Dawley rats such that their tips were in the upper lumbar region. Analgesia was determined as an increase in the latency to withdrawal of the hindpaw from a focused light heat source. To prevent injury, duration of 30 seconds was not exceeded. The latency to paw withdrawal was determined both before and after intrathecal injection of trans-metanicotine in these rats, and the data were expressed as % maximum possible effect.

Data set [7] shares this test system. As to the kind of experiment: Intraplantar capsaicin mechanical hyperalgesia, hindpaw withdrawal threshold with von Frey filaments, intrathecal injection. The conditions noted are these: for average % reduction in withdrawal threshold over the 2 hours after capsaicin injection: % change from pre-capsaicin threshold, capsaicin 30 μg intraplantar, 50 μg i.t. It is filed as in vivo, rat. The method, then: Adult male and female Sprague Dawley rats were prepared with insertion of intrathecal catheters as described above. Capsaicin (8-methyl-N-vanillyl nonamide) was prepared in a concentration of 30 μg in 10 μl. Briefly, capsaicin powder was first dissolved in Tween 80, then in isotonic saline and heated to 70° C. The solution obtained was filtered and stored in sterile glass vials. Each group of rats represents 6 males and 6 females tested at the same time and each animal received only one injection in the left plantar surface of the hindpaw. Each animal was lightly anesthetized under halothane and immediately after immobility, received intradermal capsaicin, 30 μg injected through a 28 G needle, in the center of the plantar surface. This dose was chosen because it produces mechanical hyperalgesia lasting at least 2 hours (Gilchrist, H. D., Allard, B. L., and Simone, D. A. Enhanced withdrawal responses to heat and mechanical stimuli following intraplantar injection of capsaicin in rats. Pain 1996;67: 179-188).
Hindpaw withdrawal thresholds were tested before capsaicin injection and every 30 minutes thereafter for 2 hours, using von Frey filaments and the up-down method described above. Care was taken to avoid direct contact of the injection point when measuring withdrawal threshold with the filaments. Intrathecal saline, or (E)-N-methyl-4-(3-pyridinyl)-3-butene-1-amine(50 μg) was injected prior to capsaicin.
Intraplantar injection of capsaicin produced a rapid onset, sustained reduction in withdrawal threshold in both sexes. However, male and female control animals differed in withdrawal threshold at baseline and after capsaicin, and the sexes were therefore compared by % change from pre-capsaicin threshold. By this analysis, the average % reduction in withdrawal threshold over the 2 hours after capsaicin injection was 74+/-5.3% in females and 64+/-6.7% in males (p=0.47, NS).

For `Clc1ccc(C2CC3CCC2N3)cn1` (stereo not drawn) [Epibatidine], the “analgesic potency relative to morphine” value in data set [1] is recorded as “three orders of magnitude higher than morphine”. In data set [2], the cardiorespiratory effects entry was “cardiorespiratory effects similar to those of nicotine”.
As for `CNCC/C=C/c1cccnc1` [Metanicotine], the antinociceptive effect result in data set [3] was “dose dependent antinociceptive effect”. Further, in data set [4], the “selectivity for central nicotinic receptor subtypes compared to peripheral ganglionic and muscular nicotinic receptors” value was “high selectivity”.
Turning to `CNCC/C=C/c1cccnc1` [trans-metanicotine, (E)-N-methyl-4-(3-pyridinyl)-3-butene-1-amine], the “return of the level of sensitivity to presurgery levels (mean ±SEM)” value in data set [5] (female rats, intrathecal, 100 μg) is 50±4%. Moreover, the “effect on hypersensitivity to light touch (von Frey withdrawal threshold)” value in data set [5] (male rats, intrathecal injection) was “no effect”. Further, the “maximum possible analgesic effect” value was found to be 45% in data set [6] (female rats, i.t. injection) and 20% in data set [6] (male rats, i.t. injection). In addition, the “antinociceptive response in females relative to males” value in data set [6] (i.t. injection, females vs males) is “twice as great”. In addition, the “duration of the antinociceptive response” value in data set [6] (male and female rats, i.t. injection) is given as “about 10 minutes”. For the same compound, the “effect at 60 μg compared with 20 μg (ceiling effect)” value in data set [6] (male and female rats, i.t., 60 μg) is given as “failed to be more effective”. Besides, the “dose dependence of the effect on paw withdrawal latency to a radiant heat stimulus” value in data set [6] (male and female rats, i.t., up to a dose of 20 μg) is listed as “dose dependent inhibition of paw withdrawal latency”. Also, the “average % reduction in withdrawal threshold over the 2 hours after capsaicin injection” value in data set [7] (female rats) is 74+/-5.3%; in data set [7] (male rats) it was 64+/-6.7%. Further, the “analgesia in the capsaicin model, comparison of the sexes” value in data set [7] (male and female rats, 50 μg i.t. prior to capsaicin) is “produced analgesia in this model of pain which was similar between the sexes”.
